We go through 14 compounds from PubChem BioAssay (NCI).

Structures are written as SMILES.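 Tested at 5 concentrations; 48 h exposure; 96-well plates; endpoints linearly interpolated, else capped at highest concentration. The concentration for full growth arrest is given as TGI.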 Some results are limits rather than exact numbers.

Assay in all cases: NCI-60 cell line screen, 48 h
For test [1], the system named is 786-0 renal.
Test [2] has as its system A498 renal.
Test [3] deals with BT-549 breast.
The test system of test [4] is CAKI-1 renal.
For test [5], the system named is HOP-92 NSCLC.
Test [6] relates to K-562 leukemia.
The test system of test [7] is NCI-H226 lung.
In test [8] the test system is NCI-H23 lung.
The test system of test [9] is NCI/ADR-RES ovarian.
Test [10] deals with OVCAR-3 ovarian.
Test [11] relates to SK-MEL-28 melanoma.
The test system of test [12] is SK-MEL-5 melanoma.
Test [13] concerns SN12C renal.
Test [14] relates to TK-10 renal.
Test [15] relates to U251 CNS.

In the case of `O=C1CC2SC(COCc3ccccc3)(CCN2Cc2ccccc2)C1` (stereo not given), the TGI in test [1], in test [2], in [3], in [4], in test [5] and in [6] was over 100 µM in each case. Moreover, the TGI is over 100 µM in test [7]; over 100 µM in test [8]; over 100 µM in test [9]; over 100 µM in test [10]; over 100 µM in test [11]; 34.8 µM in test [12]. Also, the TGI in [13] was over 100 µM; in [14] it was 76.3 µM; in test [15] it was over 100 µM.

Take `N/C(=N\S(=O)(=O)c1cc(Cl)c(Oc2ccc([N+](=O)[O-])cc2Cl)c(Cl)c1)Nc1ccc(Cl)cc1`: the TGI in test [1] amounted to 35.1 µM; in test [2] it was 29.4 µM; in [3] it was 32.3 µM; in test [4], 33.1 µM; in test [5] it was 32.3 µM; in test [6], 43.1 µM. For the same compound, the TGI in test [7] is 33.2 µM; in [8], 32.1 µM; in test [9] it was 35.3 µM; in [10], 37.6 µM; in test [11], 33 µM; in test [12], 31.3 µM. The TGI is 33.3 µM in [13], 35.4 µM in test [14] and 29.6 µM in [15].

`CC(=O)OCC1OC(n2nc(Cc3ccccc3)c(=S)[nH]c2=S)C(OC(C)=O)C(OC(C)=O)C1OC(C)=O` (stereo not given): the TGI in test [1] is over 100 µM; in [2], over 100 µM; in [3], 41.7 µM; in test [4] it was over 100 µM; in test [5] it was 40.6 µM; in test [6], over 100 µM. For the same compound, the TGI in test [7] is over 100 µM; in test [8], 44.6 µM; in test [9], over 100 µM; in [10], 41.2 µM; in test [11], over 100 µM; in test [12], over 100 µM. In addition, the TGI in test [13] was 55.3 µM; in test [14], over 100 µM; in test [15] it was 73.4 µM.

For `O=Nc1c(O)cc(Nc2cccnc2)c2ccccc12`, the TGI in test [1] was over 100 µM; in test [2] it was over 100 µM; in test [3], over 100 µM; in [4] it was over 100 µM; in test [5], 68 µM; in test [6], 58.8 µM. For the same compound, the TGI is over 100 µM in [7]; 76 µM in test [8]; 65.1 µM in test [9]; 11.8 µM in test [10]; 11.6 µM in [12]; over 100 µM in [13]. Besides, the TGI in test [14] and in test [15] was over 100 µM each time.

As to `C/C(Cc1ccc2c(c1)OCO2)=N\NC(=O)C(C)Sc1nnc(SC(C)C(=O)N/N=C(\C)Cc2ccc3c(c2)OCO3)s1` (stereo not given), the TGI in test [1], in [2], in test [3], in test [4], in test [5] and in [6] was over 100 µM throughout. Besides, the TGI in test [7], in test [8], in [9], in [10], in test [11] and in test [12] was over 100 µM each time. Further, the TGI in test [14] and in [15] was over 100 µM throughout.

In the case of `O=C(N/N=C/C=C/c1ccc([N+](=O)[O-])o1)c1ccc(C(=O)N/N=C/C=C/c2ccc([N+](=O)[O-])o2)cc1`, the TGI in test [1] was over 72.1 µM; in test [2], over 100 µM; in test [3] it was over 100 µM; in test [4] it was over 90 µM; in [5], over 100 µM; in [6], over 93.5 µM. Further, the TGI was over 100 µM in test [7]; over 100 µM in test [8]; over 92.8 µM in test [9]; over 100 µM in [10]; over 100 µM in test [11]; 99.7 µM in test [12]. In addition, the TGI is over 54.5 µM in test [13], over 69.7 µM in test [14] and over 52.8 µM in test [15].

For `CCOC(=O)C(Cc1ccc(N(CCCl)CCCl)cc1)NC(=O)CCCN1C(=O)CN=C(c2ccccc2)c2cc(Cl)ccc21` (stereo not given), the TGI in test [1] is over 77.5 µM; in [2], over 100 µM; in test [3] it was over 100 µM; in [4], over 55.7 µM; in [5], 8.85 µM; in [6], over 100 µM. Also, the TGI in [7] is 97 µM; in test [8], over 39 µM; in [9] it was over 87.1 µM; in test [10], 5.32 µM; in [11] it was 8.35 µM; in test [12], 25.2 µM. The TGI in [13] was 14.5 µM; in test [14], over 100 µM; in [15], over 100 µM.

With `C#CC1NC(=O)C1N(CC)CC` (stereo not given), the TGI in test [1], in [2], in test [3], in [4], in test [5] and in test [6] was over 100 µM each time. For the same compound, the TGI in test [7], in test [8], in [9], in [10], in test [11] and in [12] was over 100 µM in each case. The TGI in test [13], in [14] and in [15] was over 100 µM each time.

`O=c1oc2ccc([N+](=O)[O-])cc2cc1Br`: the TGI in test [1], in test [2], in [3], in test [4], in [5] and in [6] was over 100 µM in each case. For the same compound, the TGI in test [7], in test [8], in test [9], in test [10], in test [11] and in [12] was over 100 µM each time. In addition, the TGI in test [13], in [14] and in test [15] was over 100 µM in each case.

Regarding `O=C1C(S(=O)(=O)c2ccccc2)=C(CS(=O)(=O)c2ccccc2)[C@@H](OCc2ccccc2)[C@@H]1OCc1ccccc1`, the TGI in test [1] was over 100 µM; in test [2], 57.3 µM; in test [3], 27 µM; in test [4], over 100 µM; in test [5], 32.7 µM; in test [6], 35.8 µM. The TGI stood at 37.3 µM in test [7]; 36.3 µM in test [8]; 54.4 µM in [9]; 27.5 µM in test [10]; 35.9 µM in [11]; 40.2 µM in test [12]. In addition, the TGI in test [13] is 76.4 µM; in test [14], over 100 µM; in [15], 53.3 µM.

On to `CN(C)c1ccc(/C=C/c2cc(-c3ccccc3)[n+](C)n2-c2ccccc2)cc1`, for which the TGI stood at 23 µM in test [1]; 14.5 µM in test [2]; 0.613 µM in test [3]; 13 µM in [4]; 16.6 µM in [5]; 71 µM in [7]. The TGI is 0.92 µM in test [8]; over 100 µM in test [9]; 17.2 µM in [10]; over 34.6 µM in test [11]; 0.522 µM in test [12]; 7.6 µM in test [13]. Also, the TGI was 30.5 µM in test [14] and over 33.8 µM in test [15].

For the compound `COc1cc2ccc1OCc1cccc(n1)COc1ccc(cc1OC)C=NCCNCCN=C2`, the TGI in [1], in [2], in test [3], in test [4], in [5] and in test [6] was over 100 µM throughout. The TGI in test [7], in test [8], in test [9], in test [10], in test [11] and in test [12] was over 100 µM throughout. Moreover, the TGI in [13], in test [14] and in test [15] was over 100 µM each time.

Take `Cc1ccc(N2C(N)=C(C#N)C(C#N)(C#N)C2c2ccccc2)cc1` (stereo not given): the TGI in [1] came to 30.3 µM; in [2], 35.7 µM; in [3] it was 23.5 µM; in [4], 30.9 µM; in test [5] it was 21.8 µM; in test [7], 38.9 µM. For the same compound, the TGI is 38.1 µM in test [8]; 36.1 µM in test [9]; 27.4 µM in test [10]; 22.3 µM in test [11]; 20.9 µM in test [12]; 30.9 µM in test [13]. Further, the TGI in [14] came out at 28 µM; in test [15], 31.6 µM.

With `CC1CN=C(Nc2ccc(F)c(Cl)c2)S1` (stereo not given), the TGI in test [1], in test [2], in test [3], in test [4], in test [5] and in test [6] was over 100 µM in each case. Besides, the TGI in test [7], in test [8], in test [9], in test [10], in [11] and in test [12] was over 100 µM throughout. In addition, the TGI in test [14] and in [15] was over 100 µM in each case.
